Experimental data from patent US12465630B2, “Small peptide compositions and uses thereof” (University of Pittsburgh—Of the Commonwealth System of …, priority 2018, dated 2025).

Tests used:
cardiac fibroblasts [1] = assay: Motility (scratch) assay, cardiac fibroblasts; assay type: cell-based, mouse
Experimental: (§1) Primary cardiac fibroblasts and cardiomyocytes were isolated from both wild-type and CXCR3−/− neonatal mouse pups. After washing in PBS, hearts were stirred for 5 minutes in 0.5% trypsin at 37° C. to dissociate cells into solution. The suspended cells were then transferred to DMEM containing 20% fetal bovine serum (FBS) on ice to inactivate trypsin activity, and dissociation was repeated twice more with fresh trypsin solution. Cells were then washed and plated into 6-well plates at 1.25×10^6 cells/well, suspended in cardiac cell media (DMEM containing 7.5% dialyzed FBS and 1% antibiotic/antimitotic solution). After three hours, adhered fibroblasts were separated from the unattached cardiomyocytes through resuspension of the cells, and cardiomyocytes were plated separately at a density of 5×10^5 cells/ml.
(§2) To determine the effect of IP-10p on TGFβ1-induced cell migration, motility assays were performed on cardiac fibroblasts, cardiomyocytes, and co-cultures (2:1 ratio of cardiomyocytes to fibroblasts). Cells were plated at 2.5×10^5 cells/well in a 12-well uncoated plate in depleted media (DMEM containing 0.5% FBS) 24 hours before beginning the experiment. A pipette tip was used to create a scratch in the monolayer and the plate was washed twice with PBS to remove scraped cells. Cells were then treated with TGFβ1 (R&D Systems, Minneapolis, MN) alone (10 ng/mL) to stimulate fibrosis, CXCL10 alone (10 μM), IP-10p alone (10 μM), TGFβ1+CXCL10, TGFβ1+IP-10p, or left untreated. Images were taken immediately after scratching and 24 hours later, and Adobe Photoshop was used to quantify wound motility as distance between wound edges relative to the initial scratch width.

cardiomyocytes = assay: Motility (scratch) assay, cardiomyocytes; assay type: cell-based, mouse; settings: TGFβ1 10 ng/mL + agent 10 μM, 24 h, FIG. 1A
Experimental: as §1, §2

[2] = system: co-cultures of cardiomyocytes and cardiac fibroblasts; assay: Motility (scratch) assay, co-cultures; assay type: cell-based, mouse; settings: co-culture 2:1 cardiomyocytes to fibroblasts; FIG. 1C; listed as IP-10 Peptide
Experimental: as §1
To determine the effect of IP-10p on TGFβ1-induced cell migration, motility assays were performed on cardiac fibroblasts, cardiomyocytes, and co-cultures (2:1 ratio of cardiomyocytes to fibroblasts). Cells were plated at 2.5×10^5 cells/well in a 12-well uncoated plate in depleted media (DMEM containing 0.5% FBS) 24 hours before beginning the experiment. […] Images were taken immediately after scratching and 24 hours later, and Adobe Photoshop was used to quantify wound motility as distance between wound edges relative to the initial scratch width.

cardiac fibroblasts [3] = assay: Fibroblast activation assay (αSMA), cardiac fibroblasts; assay type: cell-based, mouse
Experimental: as §1
(§3) Fibroblast activation to myofibroblasts is marked by αSMA expression within the cytoskeleton and serves as a marker to induce fibrosis. Cardiac fibroblasts were plated at 2,000 cells/well in an 8-well chamber slide and allowed to adhere overnight. After 24 hours, cells were washed and treated with: TGFβ1 alone (10 ng/ml), CXCL10 alone (10 μM), IP-10p alone (10 μM), TGFβ1+CXCL10, TGFβ1+IP-10p, or left untreated. After 24 hours, cells were fixed in ice cold methanol for 10 minutes and stained for αSMA (1:200, Abcam ab5694, Cambridge, UK) at 4° C. overnight, followed by a goat-anti-rabbit Alexa Fluor 594-conjugated secondary antibody (Abcam ab150080). After counterstaining with DAPI, cells were imaged, and fibroblast activation was measured using corrected total cell fluorescence (CTCF). These measurements were also performed in co-cultures of cardiomyocytes and cardiac fibroblasts (2:1 ratio)

[4] = system: co-cultures of cardiomyocytes and cardiac fibroblasts; assay: Fibrotic extracellular matrix (ECM) secretion, co-cultures; assay type: cell-based, mouse; settings: 48 h
Experimental: as §1
Cardiac fibrosis is marked by overproduction of ECM proteins following injury. To observe the effect of IP-10p on secretion of these molecules, co-cultures of cardiomyocytes and cardiac fibroblasts were used to account for […] signaling taking place between the two dominant cell types in the heart. Fibroblasts and myocytes were plated at a 2:1 ratio using the same culture conditions and treatment groups described above for fibroblast activation. Following a 48-hour incubation with their respective treatments, cells were fixed, permeabilized and stained. Antibodies for collagen α1 type 1 (1:250, Santa Cruz Biotechnology SC8784, Dallas, TX), fibronectin (1:250, Abcam ab2413), and tenascin C (1:200, Abcam ab6346), followed by their appropriate secondary antibodies (Abcam ab150132, ab150077, and 150153, respectively), were used to determine fibrotic ECM secretion from the co-cultures. Expression of these molecules is expressed at CTCF and was quantified using MetaMorph® (Molecular Devices, Sunnyvale, CA).

[5] = system: CXCR3−/− co-cultures of cardiac fibroblasts and cardiomyocytes; assay: Myofibroblast differentiation and ECM in CXCR3−/− co-cultures; assay type: cell-based, mouse; settings: CXCR3−/− cells, TGFβ1
Experimental: as §1, §3
Cardiac fibrosis is marked by overproduction of ECM proteins following injury. […] Expression of these molecules is expressed at CTCF and was quantified using MetaMorph® (Molecular Devices, Sunnyvale, CA).
In addition to cell motility, myofibroblast differentiation in CXCR3−/− cells in response to IP-10p was assessed. […]

CXCR3 = target: T1, CXCR3 (Homo sapiens, UniProt P49682); settings: cited from earlier work
T1 sequence (P49682 1-415 isoform P49682-2): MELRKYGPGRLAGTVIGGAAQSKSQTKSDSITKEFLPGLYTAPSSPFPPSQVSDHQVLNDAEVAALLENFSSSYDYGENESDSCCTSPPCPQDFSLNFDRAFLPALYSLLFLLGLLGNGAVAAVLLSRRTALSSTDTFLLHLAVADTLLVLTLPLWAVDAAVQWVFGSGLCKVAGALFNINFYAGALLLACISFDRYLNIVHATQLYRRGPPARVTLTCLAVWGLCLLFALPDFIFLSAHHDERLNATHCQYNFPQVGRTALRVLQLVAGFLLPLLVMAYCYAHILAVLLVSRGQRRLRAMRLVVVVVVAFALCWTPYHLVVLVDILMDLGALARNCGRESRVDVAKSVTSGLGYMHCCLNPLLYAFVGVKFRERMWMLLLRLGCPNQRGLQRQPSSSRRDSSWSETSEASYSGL

[6] = agent alone vs unstimulated cultures

PESKAIKNLLKAVSKEMSKRSP [IP-10p, 22-amino acid CXCL10 peptide spanning the C-terminal residues (77-98) of IP-10, the alpha-helical region]
motility of cardiac fibroblasts, agent alone (cardiac fibroblasts [1]; 10 μM alone, 24 h, compared to control): not altered | migration following TGF-β induction in cardiac fibroblasts (cardiac fibroblasts [1]; FIG. 1B): inhibit migration | reduction of motility of TGFβ1-treated fibroblasts (cardiac fibroblasts [1]; TGFβ1 10 ng/mL + agent 10 μM, 24 h): over 40% | cardiomyocyte motility in the presence of TGFβ1 (cardiomyocytes): completely inhibited | cardiomyocyte motility in the presence of TGFβ1 (cardiomyocytes; listed as IP-10 Peptide): inhibit migration | cellular migration in TGF-β induced co-cultures [2]: inhibits cellular migration | reduction of activation of fibroblasts (αSMA) compared to the untreated control (cardiac fibroblasts [3]; IP-10p alone 10 μM, 24 h): 33% | αSMA expression in the presence of TGFβ1 (cardiac fibroblasts [3]; TGFβ1 10 ng/mL + IP-10p 10 μM vs TGFβ1 alone): reduced αSMA expression | collagen expression in the presence of TGFβ1 ([4]; TGFβ1 10 ng/mL + agent 10 μM): reduced expression of both these proteins to baseline levels | fibronectin expression in the presence of TGFβ1 ([4]; TGFβ1 10 ng/mL + agent 10 μM): reduced expression of both these proteins to baseline levels | collagen secretion, agent alone [4, 6]: reduced collagen and fibronectin secretion | fibronectin secretion, agent alone [4, 6]: reduced collagen and fibronectin secretion | expression of αSMA in CXCR3−/− co-cultures [5]: inhibiting expression | upregulation of collagen I in CXCR3−/− co-cultures [5]: inhibited upregulation | upregulation of fibronectin in CXCR3−/− co-cultures [5]: inhibited upregulation | activation of the CXCR3B isoform (CXCR3; PCT Publication Nos. WO 2013/032853 and WO 2015/112505): activates the CXCR3B isoform | competition for binding and activation of CXCR3 (CXCR3; compared with whole CXCL10): competes for binding and activation of CXCR3 in an equimolar manner to whole CXCL10
